± gives the expanded uncertainty stated by the source.
Experiments:
[1] = refractive index (Na D-line) (dimensionless); details: 298.15 K; 100 kPa; Liquid; Standard Abbe refractometry
[2] = Liquid; for viscosity: Falling or rolling sphere viscometry; for mass density: Vibrating tube method
[3] = xn = mol fraction of the nth substance listed; details: 298.15 K; 100 kPa; Liquid; Falling or rolling sphere viscometry; x1 = 1
[4] = refractive index (Na D-line) (dimensionless); xn = mol fraction of the nth substance listed; details: 298.15 K; 100 kPa; Liquid; Standard Abbe refractometry; x1 = 1

Compound	refractive index [1]	viscosity ([2]; 288.15 K, 101.33 kPa) [mPa·s]	mass density ([2]; 288.15 K, 101.33 kPa) [kg/m3]	viscosity ([2]; 293.15 K, 101.33 kPa) [mPa·s]	mass density ([2]; 293.15 K, 101.33 kPa) [kg/m3]	viscosity ([2]; 298.15 K, 101.33 kPa) [mPa·s]	mass density ([2]; 298.15 K, 101.33 kPa) [kg/m3]	viscosity ([2]; 303.15 K, 101.33 kPa) [mPa·s]	mass density ([2]; 303.15 K, 101.33 kPa) [kg/m3]	viscosity ([2]; 308.15 K, 101.33 kPa) [mPa·s]	mass density ([2]; 308.15 K, 101.33 kPa) [kg/m3]	viscosity ([2]; 313.15 K, 101.33 kPa) [mPa·s]	mass density ([2]; 313.15 K, 101.33 kPa) [kg/m3]	viscosity ([2]; 318.15 K, 101.33 kPa) [mPa·s]	mass density ([2]; 318.15 K, 101.33 kPa) [kg/m3]	viscosity ([2]; 298.15 K, 100 kPa) [mPa·s]	viscosity [3] [mPa·s]	refractive index [4]
CCn1cc[n+](C)c1.N#C[C-](C#N)C#N [1-ethyl-3-methyl-1H-imidazolium tricyanomethanide]	1.51227 ± 0.00036	19.9 ± 0.43	1088.49 ± 0.15	16.54 ± 0.35	1084.93 ± 0.15	14 ± 0.3	1081.38 ± 0.15	11.99 ± 0.26	1077.84 ± 0.15	10.32 ± 0.22	1074.33 ± 0.15	8.9 ± 0.19	1070.83 ± 0.15	7.82 ± 0.17	1067.35 ± 0.14			
O [water]	1.33252 ± 0.00035															0.89 ± 0.02		
O [water] + CCn1cc[n+](C)c1.N#C[C-](C#N)C#N																	0.89 ± 0.02	1.33252 ± 0.00035

Source: the NIST ThermoML archive (doi:10.1016/j.jct.2015.05.011)
